Results taken from patent publication US10519105B2, “KCNQ2-5 channel activator” (ONO PHARMACEUTICAL CO., LTD., priority 2016, dated 2019).
In brackets after ≈: the same amount, converted by molar mass.

What was measured:
Human KCNQ2/3 channel = target: T1, Human KCNQ2/3 channel (Homo sapiens, UniProt O43525+O43526); test: Opening action with respect to KCNQ2/3 channel by depolarization stimulation (thallium influx, FLIPR); format: cell-based; details: concentration giving 50% of the maximum reaction of retigabine (10 μM); human KCNQ2/3 expressing CHO-DHFR- cells; read-out: KCNQ2/3 ECrtg50
T1 construct: expressed in transfected cells; host or cells: CHO-DHFR- cells
Description: Human KCNQ2/3 expression cells (CHO-DHFR− cells) were seeded in each well of a 384-well plate (collagen-coated, black, clear bottom) at 0.5×10^4 cells/50 μL per well and cultured using a MEM ALPHA medium (containing 10 vol % inactivated (56° C., 30 min) fetal bovine serum, 100 IU/mL penicillin, 100 μg/mL streptomycin, and 2 mM L-glutamine) at 37° C. in 5% CO2 for 18 to 24 hours. After the medium in the plate was removed, incubation (room temperature, 60 minutes, shading) was performed in a loading buffer (prepared by the method described in the manual of FluxOR Thallium Detection Kit (Invitrogen, F10016, F10017)). A KCNQ2/3 channel opening action (thallium influx into cells) by depolarization stimulation (5 mM potassium and 0.5 mM thallium) was measured by FLIPR TETRA (Molecular Devices). The compound of the present invention was treated 5 minutes before the depolarization stimulation, and the reaction induced by the depolarization stimulation was measured over time for 180 seconds. The channel opening action of the compound of the present invention was evaluated based on the change amount of the fluorescence intensity from the time before the depolarization stimulation to the time after the elapse of 180 seconds, and the concentration (ECrtg50) satisfying 50% of the fluorescence intensity change of a maximum reaction (in the treatment at 10 μM) of retigabine under the conditions of this experiment was calculated.

[1] = Stability in human liver microsomes; format: in vitro ADME; details: human liver microsomes 0.5 mg/mL, NADPH, 5 μM, 37° C., 15 minutes
Description: A test compound (a 10 mM DMSO solution, 5 μL) was diluted with a 50% aqueous acetonitrile solution (195 μL), whereby a 0.25 mM solution was prepared.
To a reaction vessel preheated to 37° C., 0.5 mg/mL of human liver microsomes (XenoTech, LLC) and 245 JLL of a 0.1 M phosphate buffer solution (pH 7.4) containing NADPH co-factor (BD Biosciences) were added, followed by preincubation for 5 minutes, and thereafter, the above-prepared test compound solution (5 μL) was added thereto to start a reaction (final concentration: 5 μM). Immediately after the start, a 20 μL portion was collected and added to 180 μL of acetonitrile containing an internal standard substance (warfarin) to stop the reaction. A 20 μL portion of this solution was stirred with 180 μL of a 50% aqueous acetonitrile solution on a plate equipped with a deproteinization filter, followed by suction filtration, and the filtrate was used as a standard sample.
After the above-prepared reaction solution was incubated at 37° C. for 15 minutes, a 20 μL portion of the solution was added to 180 μL of cooled acetonitrile (containing warfarin serving as an internal standard substance) to stop the reaction. A 20 μL portion of this solution was stirred with 180 μL of a 50% aqueous acetonitrile solution on a plate equipped with a deproteinization filter, followed by suction filtration, and the filtrate was used as a reaction sample.
A residual ratio (%) was calculated as follows. 1 μL of the sample solution was injected into LC-MS/MS (Discovery Max, manufactured by Thermo Scientific, Inc.), and a value obtained by dividing the peak area ratio of the reaction sample (peak area of test compound/peak area of internal standard substance) by the peak area ratio of the standard sample was multiplied by 100.

hERG IKr current = target: T2, hERG IKr current (Homo sapiens, UniProt Q12809); test: Action on hERG IKr current (patch-clamp, HEK293 cells overexpressing hERG); format: cell-based; details: maximum tail current, 10 minutes after application, read-out: 50% hERG channel inhibitory activity
T2 construct: expressed in transfected cells; host or cells: HEK293 cells
T2 sequence (Q12809 whole entry): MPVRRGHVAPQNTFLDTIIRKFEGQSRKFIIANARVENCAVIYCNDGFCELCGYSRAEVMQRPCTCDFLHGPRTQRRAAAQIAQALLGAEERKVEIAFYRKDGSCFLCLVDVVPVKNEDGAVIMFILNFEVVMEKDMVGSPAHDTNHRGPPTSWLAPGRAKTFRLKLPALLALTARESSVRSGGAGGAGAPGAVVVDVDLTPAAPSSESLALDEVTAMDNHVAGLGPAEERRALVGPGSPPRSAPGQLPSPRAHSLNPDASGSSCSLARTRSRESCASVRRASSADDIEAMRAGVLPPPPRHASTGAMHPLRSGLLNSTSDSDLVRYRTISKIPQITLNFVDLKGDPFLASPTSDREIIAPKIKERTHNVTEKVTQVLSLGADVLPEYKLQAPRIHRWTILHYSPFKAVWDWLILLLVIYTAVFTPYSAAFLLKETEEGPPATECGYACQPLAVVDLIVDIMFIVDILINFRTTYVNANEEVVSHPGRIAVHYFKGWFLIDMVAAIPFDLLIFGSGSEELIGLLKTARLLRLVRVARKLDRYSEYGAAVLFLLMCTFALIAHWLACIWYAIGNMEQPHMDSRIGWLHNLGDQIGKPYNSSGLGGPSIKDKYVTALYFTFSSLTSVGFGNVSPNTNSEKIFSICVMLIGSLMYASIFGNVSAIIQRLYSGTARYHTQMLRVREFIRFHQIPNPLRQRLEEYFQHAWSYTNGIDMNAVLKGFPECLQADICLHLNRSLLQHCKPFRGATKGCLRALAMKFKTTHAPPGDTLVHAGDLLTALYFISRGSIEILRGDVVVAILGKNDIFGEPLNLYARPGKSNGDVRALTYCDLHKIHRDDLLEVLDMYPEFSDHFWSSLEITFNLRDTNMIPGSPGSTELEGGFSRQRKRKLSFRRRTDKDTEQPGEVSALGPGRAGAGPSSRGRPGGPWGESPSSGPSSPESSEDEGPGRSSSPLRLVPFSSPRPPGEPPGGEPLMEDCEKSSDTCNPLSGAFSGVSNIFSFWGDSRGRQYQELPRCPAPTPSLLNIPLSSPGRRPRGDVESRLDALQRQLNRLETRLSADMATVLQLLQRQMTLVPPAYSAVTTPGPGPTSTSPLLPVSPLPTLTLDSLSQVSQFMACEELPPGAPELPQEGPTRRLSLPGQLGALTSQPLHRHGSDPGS
Description: By using HEK293 cells overexpressing a human ether-a-go-go-related gene (hERG), the maximum tail current of the hERG IKr current induced by redepolarization pulse subsequent to depolarization pulse was measured by a patch-clamp method, and the percent change (suppression ratio) after 10 minutes from application of a test substance with respect to the maximum tail current before the application of the test substance was calculated (see, Biophysical Journal, vol. 74, pp. 230-241 (1998)).

[2] = system: bladder extracted from rat; test: Relaxing action on bladder extracted from rat (carbachol-induced contraction, Magnus tube); details: rat bladder strip, carbachol 1 μM contraction; read-out: IC20 (percent change in tension -20%)
Description: Female Jcl:Wistar rats (CLEA Japan, Inc., body weight at use: 170 to 200 g) were anesthetized by intraperitoneal administration of about 40 mg/kg of pentobarbital (Somnopentyl, Schering Plough Animal Health Corporation), and killed by bloodletting. The bladder was extracted by abdominal incision and immediately thereafter immersed in ice-cooled Krebs buffer (Krebs Ringer bicarbonate buffer (Sigma-Aldrich Co. LLC) supplemented with sodium hydrogen carbonate (final concentration: 15 mM) and calcium chloride (final concentration: 2.5 mM)) saturated with a mixed gas (95% O2, 5% CO2).
The bladder body extracted from each rat was cut into an oblong strip shape (about 10×3 mm), whereby a specimen was prepared on ice. Immediately thereafter, the specimen was suspended in a Magnus tube filled with Krebs buffer (37° C.) bubbled with the mixed gas while applying a tension load of 500 mg thereto. Incidentally, the specimen was prepared within 24 hours after extracting the tissue.
After the elapse of one hour or more from the suspension of the specimen, 2.5 M KCl was added thereto to a final concentration of 100 mM, and the specimen in which a contraction reaction could be confirmed was used.
Carbachol (a contraction inducer) contraction was induced at a concentration of 1 μM. […] After the contraction reaction was stabilized, physiological saline or the compound of the present invention was added thereto to a final concentration of 1 nM, 10 nM, 100 nM, 1 μM, and […] in a cumulative manner from a low concentration.
The tension (mg) in the extracted bladder was used as an evaluation item. The tension was read using analysis software WAVE THERMO 1000. A percent change in tension after adding the compound of the present invention when the tension after adding the contraction inducer was taken as 0% was defined as a percent change in tension (%) and used as an evaluation index. The percent change in tension (%) is calculated according to the following formula. percent change in tension (%)={tension (mg) after adding compound of the present invention and the like−tension (mg) before adding contraction inducer}/{tension (mg) after adding contraction inducer−tension (mg) before adding contraction inducer}×100−100
The value at which the percent change in tension (%) was −20% was calculated as IC20 and used as an index of the relaxing action on the extracted bladder.

[3] = Solubility test (DMSO precipitation method, Japanese Pharmacopoeia dissolution test second solution); format: physicochemical; details: aqueous buffer, kinetic from dmso stock, JP dissolution test second solution pH 6.8, room temperature, quantification range 5 to 100 μM
Description: A calibration curve solution was prepared at 0.1, 0.4, and 2 μM by diluting a test substance (a 10 mM DMSO solution) with acetonitrile and adding acetonitrile containing an internal standard substance (candesartan).
A sample solution was prepared as follows. 5 μL of the compound of the present invention (a 10 mM DMSO solution) was added to 495 μL of the Japanese Pharmacopoeia dissolution test second solution (pH: 6.8), followed by stirring at room temperature for 5 hours. Then, the solution was transferred to a solubility filter plate and subjected to suction filtration. The filtrate (20 μL) was diluted with acetonitrile, followed by adding acetonitrile containing an internal standard substance (candesartan).
Each of the calibration curve and sample solutions (5 μL) was injected into LC-MS/MS (Discovery Max, manufactured by Thermo Scientific, Inc.) and subjected to quantification (quantification range: 5 to 100 μM). The solubility in the case where the value equal to or less than the quantification range was obtained was defined as <5 μM, and the solubility in the case where the value equal to or more than the quantification range was obtained was defined as […].

Row | Structure (SMILES) | EC50 (Human KCNQ2/3 channel) [nM] | Residual ratio [1] [%] | IC50 (hERG IKr current) [nM] | IC20 [2] [nM] | solubility at 5 h [3] [µM]
1 | CC1(O)CCc2c1cc(Cl)c(NC(=O)NCc1ccc(C(F)(F)F)cn1)c2Cl (single isomer, unassigned) [Example 4(4), 1-(4,6-dichloro-1-hydroxy-1-methyl-2,3-dihydro-1H-inden-5-yl)-3-{[5-(trifluoromethyl)-2-pyridinyl]methyl}urea] | 300 | 98 | > 10000 | – | –
2 | O=C(NCc1ccc(C(F)(F)F)cn1)Nc1c(Cl)cc2c(c1Cl)CCC2(O)C(F)(F)F (stereo not shown) [Example 12(4), 1-[4,6-dichloro-1-hydroxy-1-(trifluoromethyl)-2,3-dihydro-1H-inden-5-yl]-3-{[5-(trifluoromethyl)-2 pyridinyl]methyl}urea] | 2 | 77 | – | 10 | 87 (≈ 42.5 µg/mL)
3 | C[C@@H](NC(=O)Nc1c(Cl)cc2c(c1Cl)CCC2(O)C(F)(F)F)c1ccc(F)cc1 (stereo partly drawn) [Example 12(5), 1-[4,6-dichloro-1-hydroxy-1-(trifluoromethyl)-2,3-dihydro-H-inden-5-yl]-3-[(1R)-1-(4-fluorophenyl)ethyl]urea] | – | – | > 10000 | 30 | –
4 | O=C(NCc1ccc(F)cc1)Nc1c(Cl)cc2c(c1Cl)CCC2(O)C(F)(F)F (stereo not shown) [Example 12, 1-[4,6-dichloro-1-hydroxy-1-(trifluoromethyl)-2,3-dihydro-1H-inden-5-yl]-3-(4-fluorobenzyl)urea] | 5 | 94 | > 10000 | 10 | 82 (≈ 35.9 µg/mL)
5 | CC1(O)c2cc(Cl)c(NC(=O)NCc3ccc(F)cc3)c(Cl)c2CC1(F)F (stereo not shown) [Example 42, 1-(4,6-dichloro-2,2-difluoro-1-hydroxy-1-methyl-2,3-dihydro-1H-inden-5-yl)-3-(4-fluorobenzyl)urea] | 200 | 90 | > 10000 | 100 | 87 (≈ 36.5 µg/mL)
